In patent publication US9241964B2, “Composition from Sphaeranthus indicus and Garcinia mangostana for the control of metabolic syndrome” (LAILA NUTRACEUTICALS, priority 2009, dated 2016):

Experiments:
[1] = test system: 3T3-L1 mouse pre-adipocyte cells; assay: Inhibition of lipid accumulation in differentiated adipocytes (Oil Red O); format: cell-based; details: Mus musculus; at 0.5 μg/ml; 3T3-L1 (Table I)
Procedure: The inhibition of fat accumulation in the treated cells was compared with the mock treated differentiated adipocytes and percentage inhibition was measured.
One hundred thousand 3T3-L1 […] pre-adipocyte cells in Dulbecco's Modified Eagles Medium (DMEM) containing 10% Fetal Bovine Serum (FBS) were taken into each well of a 24-well plate and incubated for 48 h at 37° C. and 5% CO2. The differentiation of pre-adipocyte cells was initiated in a differentiation medium containing 10 μg/ml insulin, 1.0 μM dexamethasone, and 0.5 mM isobutylmethylxanthine (IBMX) for 48 h. After this the medium was replaced by DMEM containing 10 μg/ml insulin and incubated for 3 days. Then the differentiating cells were treated 10 μg/ml of Sphaeranthus indicus ethyl acetate extract (LI/DD-II/054A/01) and 0.5 μg/ml of 7-hydroxyfrullanolide (LI054A01) and maintained in the medium for another 3-5 days. The cells incubated with 0.1% DMSO were considered as the vehicle control. After the incubation period, cells were washed with phosphate buffered saline (PBS) and fixed with 10% buffered formalin for 1 h at room temperature. One small aliquot of cell suspension was separated for cell counting in hemocytometer chamber. Fixed cells were stained with Oil Red O solution to measure the cellular neutral lipid accumulation. Briefly, cells were washed with PBS, fixed with 10% buffered formalin and stained with Oil Red O solution (0.5 g in 100 ml isopropanol) for 10 min. After removing the staining solution, the dye retained in the cells will be eluted into isopropanol and OD measured at 550 nm. The inhibition of fat accumulation in the treated cells was compared with the mock treated differentiated adipocytes. The treated and control cells were also analyzed and compared for inhibition of lipid accumulation visually under microscope and recorded digitally in suitable image capture system. The anti-adipogenic activities shown by Sphaeranthus Indicus ethyl acetate extract (LI/DD-II/054A/01) and LIO054A01 are summarized in the following table.

[2] = test system: PPARγ; assay: Immunoblot of PPARγ in 3T3-L1 adipocytes; format: cell-based, mouse; details: immunoblot normalized with actin
Excerpt: (§1) The inventors have then evaluated the modulation of metabolic biomarkers those are primarily responsible for the adipogenesis processes, insulin resistance in type 2 diabetes, obesity, metabolic syndrome and other metabolic disorders such as Peroxisome proliferator-activated receptor gamma (PPARγ), CD36, adipocyte fatty acid binding protein 4 (FABP4 or aP2), Perilipin, and beta-3 Adrenergic Receptor (β3AR) during adipogenesis process in 3T3-L1 adipocytes by ethyl actate extract (LI/DD-II/054A/01) of Sphaeranthus indicus and 7-hydroxyfrullanolide (LI054A01) using an immunoblot assay. […] The protein extracts were evaluated by immunoblot assay, and the immuno-reactive bands were developed with West-pico chemiluminescent substrate and the blot images were captured in a Kodak Image Station, normalized with expression of actin.
(§2) Experimental protocol: Mouse pre-adipocyte 3T3-L1 cells are maintained in Dulbecco's Modified Eagles Medium (DMEM) supplemented with 2 mM glutamine, 4.5 g/L glucose and 10% fetal bovine serum. […] Protein content was measured in Bradford method by using Coomassie blue dye and cell lysates were stored in aliquots at −80° C. until further use. […]
(§3) Inhibition of protein expression of biomarker molecules adipocytes in presence or absence of Sphaeranthus indicus extract LI/DD-II/054A/01 and 7-hydroxyfrullanolide (LI054A01) was evaluated in immunoblot assay. […]

[3] = test system: aP2/FABP4; assay: Immunoblot of aP2/FABP4 in 3T3-L1 adipocytes; format: cell-based, mouse; details: immunoblot normalized with actin
Excerpt: as §1, §2, §3

C=C1C(=O)O[C@H]2C3=C(C)CCC[C@]3(C)CC[C@@]12O [LI054A01, 7-α-hydroxy-4,11(13)-eudesmadien-12,6-olide]
inhibition at 0.5 µg/mL [1]: 68.7%
PPARγ protein level [2]: potently ameliorated
aP2/FABP4 protein level [3]: potently ameliorated
